Measured values reported in patent US12357631B2 (priority 2018, dated 2025).

These compounds were tested against PB2 (Influenza A virus, UniProt P03428) (assay: biochemical).
Assay type: binding

Sequence of PB2 (P03428 whole entry, looked up): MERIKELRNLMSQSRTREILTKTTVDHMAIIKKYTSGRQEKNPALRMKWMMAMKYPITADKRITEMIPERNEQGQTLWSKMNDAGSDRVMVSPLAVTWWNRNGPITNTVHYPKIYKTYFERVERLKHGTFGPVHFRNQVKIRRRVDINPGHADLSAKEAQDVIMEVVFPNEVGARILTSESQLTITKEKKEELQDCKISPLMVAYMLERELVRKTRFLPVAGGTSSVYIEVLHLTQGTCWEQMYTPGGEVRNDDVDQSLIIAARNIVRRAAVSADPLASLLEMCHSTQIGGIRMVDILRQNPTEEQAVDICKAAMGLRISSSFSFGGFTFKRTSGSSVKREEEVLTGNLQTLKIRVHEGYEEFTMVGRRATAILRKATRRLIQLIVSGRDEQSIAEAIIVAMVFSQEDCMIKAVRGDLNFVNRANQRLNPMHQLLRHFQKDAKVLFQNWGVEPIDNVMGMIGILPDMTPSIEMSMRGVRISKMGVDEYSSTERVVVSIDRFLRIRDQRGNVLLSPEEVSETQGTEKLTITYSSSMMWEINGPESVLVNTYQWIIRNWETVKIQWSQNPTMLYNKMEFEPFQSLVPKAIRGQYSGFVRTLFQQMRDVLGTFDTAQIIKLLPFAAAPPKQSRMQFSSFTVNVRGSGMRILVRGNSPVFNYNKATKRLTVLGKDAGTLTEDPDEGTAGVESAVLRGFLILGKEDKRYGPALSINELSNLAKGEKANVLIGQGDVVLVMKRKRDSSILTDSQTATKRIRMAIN

`CCOCCOCCCCCN(CC)C(=O)N[C@H]1CCC[C@@H](Nc2nc(-c3c[nH]c4ncc(F)cc34)ncc2F)C1` [Compound A227] and `CCOCCOCCCCCN(C(=O)N[C@H]1CCC[C@@H](Nc2nc(-c3c[nH]c4ncc(F)cc34)ncc2F)C1)C1CC1` [Compound A242] cannot be ordered by EC50: over 100 µM for the first, over 100 µM for the second.

`CCc1cccc(OCCOCc2ccnc(C(=O)N[C@H]3CCC[C@@H](Nc4nc(-c5c[nH]c6ncc(F)cc56)ncc4F)C3)c2)c1` [Compound A72] and `COCCOCc1ccnc(C(=O)N[C@@H]2CCC[C@H](Nc3nc(-c4c[nH]c5ncc(F)cc45)ncc3F)C2)c1` [Compound A45] fall in the same range of EC50: 25 to 50 µM for the first, 25 to 50 µM for the second.

First: CCCCCOCCOCCNC(=O)N[C@@H]1CCC[C@H](Nc2nc(-c3c[nH]c4ncc(F)cc34)ncc2F)C1 [Compound A183]
Second: CCOCCOCCCCCNC(=O)N[C@@H]1CCC[C@H](Nc2nc(-c3c[nH]c4ncc(F)cc34)ncc2F)C1 [Compound A180]
The EC50 of the first is lower: 50 to 100 µM for the first, over 100 µM for the second.

First: Cc1cncc(C(=O)N[C@@H]2CCC[C@H](Nc3nc(-c4c[nH]c5ncc(F)cc45)ncc3F)C2)c1 [Compound A64]
Second: O=C(N[C@H]1CCC[C@@H](Nc2nc(-c3c[nH]c4ncc(F)cc34)ncc2F)C1)c1cncc(F)c1 [Compound A57]
The EC50 of the first is lower: under 5 µM for the first, 5 to 25 µM for the second.

First: CCOCCOCCOCCNC(=O)N[C@@H]1CCC[C@H](Nc2nc(-c3c[nH]c4ncc(F)cc34)ncc2F)C1 [Compound A167]
Second: O=C(O)CCOCCOCCOCCNC(=O)N[C@H]1CCC[C@@H](Nc2nc(-c3c[nH]c4ncc(F)cc34)ncc2F)C1 [Compound A172]
The EC50 of the first is higher: over 100 µM for the first, 5 to 25 µM for the second.

`Cc1cc(C(=O)N[C@H]2CCC[C@@H](Nc3nc(-c4c[nH]c5ncc(F)cc45)ncc3F)C2)ccn1` [Compound A51] and `Cc1ccnc(C(=O)N[C@H]2CCC[C@@H](Nc3nc(-c4c[nH]c5ncc(F)cc45)ncc3F)C2)c1` [Compound A53] fall in the same range of EC50: 5 to 25 µM for the first, 5 to 25 µM for the second.

Compared with `CCOC(=O)CCOCCOCCOCC(=O)N1CCC[C@@H](Nc2nc(-c3c[nH]c4ncc(F)cc34)ncc2F)C1` [Compound C6], `CCOCCOCCOCCNC(=O)N[C@@H]1CCC[C@H](Nc2nc(-c3c[nH]c4ncc(F)cc34)ncc2F)C1` [Compound A264] is higher in EC50: 5 to 25 µM for the first, over 100 µM for the second. The first is the more potent here.

`CCC(CC)OCCOCCCCCN(C)C(=O)N[C@H]1CCC[C@@H](Nc2nc(-c3c[nH]c4ncc(F)cc34)ncc2F)C1` [Compound A246] and `CCCOCCOCCCCN(C)C(=O)N[C@H]1CCC[C@@H](Nc2nc(-c3c[nH]c4ncc(F)cc34)ncc2F)C1` [Compound A243] cannot be ordered by EC50: over 100 µM for the first, over 100 µM for the second.

First: COCc1cccc(-c2ccnc(C(=O)N[C@@H]3CCC[C@H](Nc4nc(-c5c[nH]c6ncc(F)cc56)ncc4F)C3)c2)c1 [Compound A61]
Second: O=C(N[C@H]1CCC[C@@H](Nc2nc(-c3c[nH]c4ncc(F)cc34)ncc2F)C1)c1cc(-c2ccccc2)ccn1 [Compound A54]
The EC50 of the first is higher: 25 to 50 µM for the first, 5 to 25 µM for the second.

First: CN(CCOCCOCCOCCO)C(=O)N[C@H]1CCC[C@@H](Nc2nc(-c3c[nH]c4ncc(F)cc34)ncc2F)C1 [Compound A191]
Second: CN(CCOCCOCCOCCO)C(=O)N[C@@H]1CCC[C@H](Nc2nc(-c3c[nH]c4ncc(F)cc34)ncc2F)C1 [Compound A169]
The EC50 of the first is lower: 25 to 50 µM for the first, 50 to 100 µM for the second. The first is the more potent here.

`CCOCCOCCCCCN(C(=O)N[C@@H]1CCC[C@H](Nc2nc(-c3c[nH]c4ncc(Cl)cc34)ncc2F)C1)C(C)C` [Compound A248] and `CCOCCOCCCCCN(C(=O)N[C@H]1CCC[C@@H](Nc2nc(-c3c[nH]c4ncc(F)cc34)ncc2Cl)C1)C(C)C` [Compound A250] cannot be ordered by EC50: over 100 µM for the first, over 100 µM for the second.

`O=C(O)CNC(=O)OCc1ccnc(C(=O)N[C@@H]2CCC[C@H](Nc3nc(-c4c[nH]c5ncc(F)cc45)ncc3F)C2)c1` [Compound A107] and `O=C(O)COCCNC(=O)OCc1ccnc(C(=O)N[C@@H]2CCC[C@H](Nc3nc(-c4c[nH]c5ncc(F)cc45)ncc3F)C2)c1` [Compound A118] cannot be ordered by EC50: under 5 µM for the first, under 5 µM for the second.

Compared with `CCOCCOCCCc1ccnc(C(=O)N[C@H]2CCC[C@@H](Nc3nc(-c4c[nH]c5ncc(F)cc45)ncc3F)C2)c1` [Compound A288], `CCOCCc1ccnc(C(=O)N[C@H]2CCC[C@@H](Nc3nc(-c4c[nH]c5ncc(F)cc45)ncc3F)C2)c1` [Compound A44] is higher in EC50: 5 to 25 µM for the first, 25 to 50 µM for the second.

`Cc1cccc(CNC(=O)OCc2ccnc(C(=O)N[C@H]3CCC[C@@H](Nc4nc(-c5c[nH]c6ncc(F)cc56)ncc4F)C3)c2)c1` [Compound A127] and `Cc1ccc(CNC(=O)OCc2ccnc(C(=O)N[C@H]3CCC[C@@H](Nc4nc(-c5c[nH]c6ncc(F)cc56)ncc4F)C3)c2)cc1` [Compound A138] cannot be ordered by EC50: over 100 µM for the first, over 100 µM for the second.

First: CCOC(=O)CCN1CCC[C@@H](Nc2nc(-c3c[nH]c4ncc(F)cc34)ncc2F)C1 [Compound C14]
Second: CCOC(=O)CN1CCC[C@H](Nc2nc(-c3c[nH]c4ncc(F)cc34)ncc2F)C1 [Compound C11]
The EC50 of the first is lower: 5 to 25 µM for the first, 25 to 50 µM for the second. The first is the more potent here.

Compared with `CCOCCOCCCCCN(C)C(=O)NCC(C)CNc1nc(-c2c[nH]c3ncc(F)cc23)ncc1F` (stereo not shown) [Compound A218], `CCOCCOCCCCCNC(=O)N(C)[C@H]1CCC[C@@H](Nc2nc(-c3c[nH]c4ncc(F)cc34)ncc2F)C1` [Compound A219] is lower in EC50: over 100 µM for the first, 25 to 50 µM for the second.

First: Cc1cccc(C(=O)N[C@H]2CCC[C@@H](Nc3nc(-c4c[nH]c5ncc(F)cc45)ncc3F)C2)n1 [Compound A47]
Second: O=C(N[C@H]1CCC[C@@H](Nc2nc(-c3c[nH]c4ncc(F)cc34)ncc2F)C1)c1ccccn1 [Compound A35]
The EC50 of the first is lower: 5 to 25 µM for the first, 50 to 100 µM for the second. The first is the more potent here.

Compared with `CCOc1ccccc1OCCCC1CCCN(C(=O)N[C@H]2CCC[C@@H](Nc3nc(-c4c[nH]c5ncc(F)cc45)ncc3F)C2)C1` (stereo partly shown) [Compound A8], `O=C(N[C@H]1CCC[C@@H](Nc2nc(-c3c[nH]c4ncc(F)cc34)ncc2F)C1)c1cnc2ccccc2c1` [Compound A55] is lower in EC50: over 100 µM for the first, 5 to 25 µM for the second.

First: CCOCCOCCOCCNC(=O)N(CCCCc1ccccc1)[C@H]1CCC[C@@H](Nc2nc(-c3c[nH]c4ncc(F)cc34)ncc2F)C1 [Compound A194]
Second: CCOCCOCCCCCN(Cc1ccccc1)C(=O)N[C@@H]1CCC[C@H](Nc2nc(-c3c[nH]c4ncc(F)cc34)ncc2F)C1 [Compound A182]
The EC50 of the first is higher: over 100 µM for the first, 50 to 100 µM for the second.

First: O=C(NCCOCC(F)(F)F)OCc1ccnc(C(=O)N[C@H]2CCC[C@@H](Nc3nc(-c4c[nH]c5ncc(F)cc45)ncc3F)C2)c1 [Compound A114]
Second: CCC(CC)OCCNC(=O)OCc1ccnc(C(=O)N[C@H]2CCC[C@@H](Nc3nc(-c4c[nH]c5ncc(F)cc45)ncc3F)C2)c1 [Compound A128]
The EC50 of the first is lower: 50 to 100 µM for the first, over 100 µM for the second. The first is the more potent here.

First: CCCCCOCCOCC(=O)N[C@@H]1CCC[C@H](Nc2nc(-c3c[nH]c4ncc(F)cc34)ncc2F)C1 [Compound A272]
Second: CCOCCOCCCCCOC(=O)N[C@@H]1CCC[C@H](Nc2nc(-c3c[nH]c4ncc(F)cc34)ncc2F)C1 [Compound A281]
The EC50 of the first is lower: 50 to 100 µM for the first, over 100 µM for the second. The first is the more potent here.

First: O=C(NCc1ccc(C(=O)O)cc1)OCc1ccnc(C(=O)N[C@@H]2CCC[C@H](Nc3nc(-c4c[nH]c5ncc(F)cc45)ncc3F)C2)c1 [Compound A97]
Second: O=C(NCc1ccc(Oc2ccccc2)cc1)OCc1ccnc(C(=O)N[C@H]2CCC[C@@H](Nc3nc(-c4c[nH]c5ncc(F)cc45)ncc3F)C2)c1 [Compound A102]
The EC50 of the first is lower: under 5 µM for the first, over 100 µM for the second. The first is the more potent here.

Compared with `CN(CCCCCOCCOCc1ccccn1)C(=O)N[C@@H]1CCC[C@H](Nc2nc(-c3c[nH]c4ncc(F)cc34)ncc2F)C1` [Compound A222], `CCCCCCCOCCCN(C)C(=O)N[C@H]1CCC[C@@H](Nc2nc(-c3c[nH]c4ncc(F)cc34)ncc2F)C1` [Compound A206] is higher in EC50: 50 to 100 µM for the first, over 100 µM for the second. The first is the more potent here.

`C[C@@H](NC(=O)OCc1ccnc(C(=O)N[C@@H]2CCC[C@H](Nc3nc(-c4c[nH]c5ncc(F)cc45)ncc3F)C2)c1)C(=O)O` [Compound A141] and `C[C@H](NC(=O)OCc1ccnc(C(=O)N[C@@H]2CCC[C@H](Nc3nc(-c4c[nH]c5ncc(F)cc45)ncc3F)C2)c1)C(=O)O` [Compound A134] cannot be ordered by EC50: under 5 µM for the first, under 5 µM for the second.

Compared with `O=C(NCc1ccccn1)OCc1ccnc(C(=O)N[C@H]2CCC[C@@H](Nc3nc(-c4c[nH]c5ncc(F)cc45)ncc3F)C2)c1` [Compound A96], `COc1ccccc1CNC(=O)OCc1ccnc(C(=O)N[C@H]2CCC[C@@H](Nc3nc(-c4c[nH]c5ncc(F)cc45)ncc3F)C2)c1` [Compound A122] is higher in EC50: 5 to 25 µM for the first, over 100 µM for the second.

`CCOCCOCCc1cccc(N(C)C(=O)N[C@H]2CCC[C@@H](Nc3nc(-c4c[nH]c5ncc(F)cc45)ncc3F)C2)c1` [Compound A212] and `CCOCCOc1cccc(CCN(C)C(=O)N[C@@H]2CCC[C@H](Nc3nc(-c4c[nH]c5ncc(F)cc45)ncc3F)C2)c1` [Compound A186] cannot be ordered by EC50: over 100 µM for the first, over 100 µM for the second.

`O=C(O)CN1CCC[C@H](Nc2nc(-c3c[nH]c4ncc(F)cc34)ncc2F)C1` [Compound C12] and `O=C(O)CCN1CCC[C@H](Nc2nc(-c3c[nH]c4ncc(F)cc34)ncc2F)C1` [Compound C13] fall in the same range of EC50: 5 to 25 µM for the first, 5 to 25 µM for the second.

First: CCOCCOCCOCCS(=O)(=O)N[C@@H]1CCC[C@H](Nc2nc(-c3c[nH]c4ncc(F)cc34)ncc2F)C1 [Compound A266]
Second: CCOCCOCCCc1cncc(C(=O)N[C@H]2CCC[C@@H](Nc3nc(-c4c[nH]c5ncc(F)cc45)ncc3F)C2)c1 [Compound A23]
The EC50 of the first is lower: 5 to 25 µM for the first, over 100 µM for the second. The first is the more potent here.

Compared with `CN1CCC(CNC(=O)OCc2ccnc(C(=O)N[C@H]3CCC[C@@H](Nc4nc(-c5c[nH]c6ncc(F)cc56)ncc4F)C3)c2)CC1` [Compound A117], `CCNC(=O)C(NC(=O)OCc1ccnc(C(=O)N[C@H]2CCC[C@@H](Nc3nc(-c4c[nH]c5ncc(F)cc45)ncc3F)C2)c1)C(C)(C)C` (stereo partly shown) [Compound A148] is higher in EC50: 5 to 25 µM for the first, 50 to 100 µM for the second.

Going from `CCCCOCCCCc1ccnc(C(=O)N[C@H]2CCC[C@@H](Nc3nc(-c4c[nH]c5ncc(F)cc45)ncc3F)C2)c1` [Compound A31] to `CCOCCC(=O)N(CC)Cc1ccnc(C(=O)N[C@@H]2CCC[C@H](Nc3nc(-c4c[nH]c5ncc(F)cc45)ncc3F)C2)c1` [Compound A69], the EC50 falls from over 100 µM to under 5 µM. The second is the more potent here.

First: CCOCCOCCCCCN(Cc1cncnc1)C(=O)N[C@H]1CCC[C@@H](Nc2nc(-c3c[nH]c4ncc(F)cc34)ncc2F)C1 [Compound A209]
Second: CCCCCCCCCCC(=O)N[C@@H]1CCC[C@H](Nc2nc(-c3c[nH]c4ncc(F)cc34)ncc2F)C1 [Compound A271]
The EC50 of the first is higher: over 100 µM for the first, 50 to 100 µM for the second. The second is the more potent here.

Going from `O=C(O)CCC(=O)N1CCC[C@H](Nc2nc(-c3c[nH]c4ncc(F)cc34)ncc2F)C1` [Compound C5] to `CCOCCOCCOCCNC(=O)N(CCOCCOCC)[C@@H]1CCC[C@H](Nc2nc(-c3c[nH]c4ncc(F)cc34)ncc2F)C1` [Compound B4], the EC50 rises from under 5 µM to over 100 µM.
